Experimental data as given in patent US8791132B2, “Compounds and methods for treatment of hypertension” (Medivation Technologies, Inc., priority 2011, dated 2014).

Assays:
[1] = molecular target: T1, rat adrenergic α1B receptor (Rattus norvegicus, UniProt P15823); test: Radioligand binding, adrenergic α1B ([3H]Prazosin); conditions: [3H]Prazosin, repeat datapoints each shown; for Percentage inhibition of ligand binding, Adrenergic α1B (0.1 μM): compound at 0.1 μM; for inhibition at 0.1 µM: read-out: Percentage inhibition of ligand binding, Adrenergic α1B (0.1 μM), compound at 0.1 μM
T1 construct: rat adrenergic α1B receptor obtained from Wistar Rat liver; from tissue; host or cells: Wistar rat liver
T1 sequence (P15823 1-515): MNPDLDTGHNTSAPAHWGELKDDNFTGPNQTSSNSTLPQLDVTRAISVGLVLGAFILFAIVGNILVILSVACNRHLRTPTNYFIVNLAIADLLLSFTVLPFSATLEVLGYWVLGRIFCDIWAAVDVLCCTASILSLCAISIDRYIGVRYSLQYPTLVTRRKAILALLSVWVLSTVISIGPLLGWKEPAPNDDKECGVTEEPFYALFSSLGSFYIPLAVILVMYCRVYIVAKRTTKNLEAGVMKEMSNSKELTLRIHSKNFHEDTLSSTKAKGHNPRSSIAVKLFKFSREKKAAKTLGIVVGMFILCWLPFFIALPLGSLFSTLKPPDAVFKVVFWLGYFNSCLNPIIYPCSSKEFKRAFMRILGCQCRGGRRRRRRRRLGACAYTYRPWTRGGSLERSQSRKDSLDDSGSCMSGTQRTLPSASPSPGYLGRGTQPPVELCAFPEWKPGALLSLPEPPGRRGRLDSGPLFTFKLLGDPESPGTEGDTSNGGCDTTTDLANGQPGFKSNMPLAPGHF
How it was run: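 Incubation ran 60 min at 25 °C in Tris-HCl buffer (50 mM, pH 7.4, 0.5 mM EDTA) with Wistar rat liver α1B receptor. 10 μM phentolamine set non-specific binding.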

[2] = molecular target: T2, human recombinant adrenergic α2B receptor (Homo sapiens, UniProt P18089); test: Radioligand binding, adrenergic α2B ([3H]Rauwolscine); conditions: for Percentage inhibition of ligand binding, Adrenergic α2B (0.03 μM): compound at 0.03 μM; for Percentage inhibition of ligand binding, Adrenergic α2B (0.03 μM) / inhibition at 0.03 µM / inhibition at 0.1 µM: [3H]Rauwolscine, repeat datapoints each shown; for Ki: read-out: Ki α2B; for inhibition at 0.03 µM: read-out: Percentage inhibition of ligand binding, Adrenergic α2B (0.03 μM), compound at 0.03 μM; for inhibition at 0.1 µM: read-out: Percentage inhibition of ligand binding, Adrenergic α2B (0.1 μM), compound at 0.1 μM
T2 construct: expressed in transfected cells; host or cells: CHO-K1
T2 sequence (P18089 1-450): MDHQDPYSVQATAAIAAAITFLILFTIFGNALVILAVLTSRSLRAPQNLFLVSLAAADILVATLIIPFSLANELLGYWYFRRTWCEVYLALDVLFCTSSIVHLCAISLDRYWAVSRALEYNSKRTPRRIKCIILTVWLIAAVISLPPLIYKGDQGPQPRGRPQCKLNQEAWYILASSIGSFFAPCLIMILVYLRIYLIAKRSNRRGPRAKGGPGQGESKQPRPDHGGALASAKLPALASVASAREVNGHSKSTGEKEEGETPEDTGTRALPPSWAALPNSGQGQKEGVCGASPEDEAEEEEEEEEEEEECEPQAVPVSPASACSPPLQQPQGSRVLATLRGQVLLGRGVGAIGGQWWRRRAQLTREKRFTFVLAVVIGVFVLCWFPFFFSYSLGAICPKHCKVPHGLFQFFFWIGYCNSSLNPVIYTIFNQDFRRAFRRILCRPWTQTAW
How it was run: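 Assay used CHO-K1-expressed human α2B receptor in Tris-HCl pH 7.4 buffer with MgCl2, EDTA and BSA; 60 min incubation at 25 °C.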

[3] = molecular target: T3, human recombinant adrenergic α2A receptor (Homo sapiens, UniProt P08913); test: Radioligand binding, adrenergic α2A ([3H]MK-912); conditions: [3H]MK-912, repeat datapoints each shown; for Percentage inhibition of ligand binding, Adrenergic α2A (0.1 μM): compound at 0.1 μM; for inhibition at 0.1 µM: read-out: Percentage inhibition of ligand binding, Adrenergic α2A (0.1 μM), compound at 0.1 μM
T3 construct: expressed in transfected cells; host or cells: insect Sf9 cells
T3 sequence (P08913 1-465): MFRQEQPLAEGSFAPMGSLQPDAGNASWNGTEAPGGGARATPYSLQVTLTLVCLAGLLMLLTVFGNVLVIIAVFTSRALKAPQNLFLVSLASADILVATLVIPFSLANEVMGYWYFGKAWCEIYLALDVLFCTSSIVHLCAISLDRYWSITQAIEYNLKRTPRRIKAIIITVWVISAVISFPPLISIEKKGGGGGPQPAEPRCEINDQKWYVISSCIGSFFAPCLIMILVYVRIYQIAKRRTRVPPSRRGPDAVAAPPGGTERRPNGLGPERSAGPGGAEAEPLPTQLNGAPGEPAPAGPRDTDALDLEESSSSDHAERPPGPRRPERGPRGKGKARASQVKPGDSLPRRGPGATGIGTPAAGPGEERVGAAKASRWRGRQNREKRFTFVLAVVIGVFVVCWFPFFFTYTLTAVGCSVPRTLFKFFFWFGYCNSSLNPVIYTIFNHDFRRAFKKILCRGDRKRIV
How it was run: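 In 50 mM Tris-HCl (pH 7.4) containing 12.5 mM MgCl2 and 2 mM EDTA, Sf9-expressed receptor was exposed to test compound plus 1 nM [3H]MK-912 at 25 °C for 60 min. Specific binding, corrected using 10 μM WB-4101, was quantified by filtration and counting and expressed as percent inhibition.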

Row | Structure (SMILES) | Percentage inhibition of ligand binding, Adrenergic α1B (0.1 μM) [1] | Percentage inhibition of ligand binding, Adrenergic α2B (0.03 μM) [2] | Percentage inhibition of ligand binding, Adrenergic α2A (0.1 μM) [3] | inhibition at 0.1 µM [1] | Ki [2] | inhibition at 0.03 µM [2] | inhibition at 0.1 µM [3] | inhibition at 0.03 µM ([1]; read-out: Percentage inhibition of ligand binding, Adrenergic α1B (0.03 μM), compound at 0.03 μM) | inhibition at 0.1 µM [2]
1 | Cc1ccc2c(c1)c1c(n2CC(OC(=O)N(C)C)c2ccncc2)CCN(C)C1 (single isomer, unassigned) [141a, N,N-dimethyl-carbamic acid 2-(2,8-dimethyl-1,2,3,4-tetrahydro-pyrido[4,3-b]indol-5-yl)-1-pyridin-4-yl-ethyl ester] | 25% | 70% | −5% |  |  |  |  |  | 
2 | Cc1ccc2c(c1)c1c(n2CC(OC(=O)N(C)C)c2ccncc2)CCN(C)C1 (single isomer, unassigned) [141b, N,N-dimethyl-carbamic acid 2-(2,8-dimethyl-1,2,3,4-tetrahydro-pyrido[4,3-b]indol-5-yl)-1-pyridin-4-yl-ethyl ester] |  | 86% |  | 28% | 3.44 nM | 79% | 19% |  | 
3 | CN1CCc2c(c3cc(Cl)ccc3n2CC(C)(O)c2ccc(C(F)(F)F)nc2)C1 (single isomer, unassigned) [143b] | 17% | 49% | 0% |  |  |  |  |  | 
4 | Cc1ccc2c(c1)c1c(n2CC(C)(OC(=O)C(C)C)c2cccnc2)CCN(C)C1 (single isomer, unassigned) [146a] | 41% | 37% | −1% |  |  |  |  |  | 
5 | Cc1ccc2c(c1)c1c(n2CC(C)(OC(=O)C(C)C)c2cccnc2)CCN(C)C1 (single isomer, unassigned) [146b] | 11% | 63% | 21% |  |  |  |  |  | 
6 | Cc1ccc2c(c1)c1c(n2CC(OC(=O)c2ccncc2)c2ccncc2)CCN(C)C1 (single isomer, unassigned) [147a, isonicotinic acid 2-(2,8-dimethyl-1,2,3,4-tetrahydro-pyrido[4,3-b]indol-5-yl)-1-pyridin-4-yl-ethylester] | 33% | 72% | 3% |  |  |  |  |  | 
7 | Cc1ccc2c(c1)c1c(n2CC(OC(=O)c2ccncc2)c2ccncc2)CCN(C)C1 (single isomer, unassigned) [147b, isonicotinic acid 2-(2,8-dimethyl-1,2,3,4-tetrahydro-pyrido[4,3-b]indol-5-yl)-1-pyridin-4-yl-ethylester] | 82% | 93% | 36% |  |  |  |  |  | 
8 | Cc1cnc2c(c1)c1c(n2CC(C)(O)c2ccc(C)nc2)CCN2CCCC12 (single isomer, unassigned) [148a] | 23% | 52% | −5% |  |  |  |  |  | 
9 | Cc1cnc2c(c1)c1c(n2CC(C)(O)c2ccc(C)nc2)CCN2CCCC12 (single isomer, unassigned) [148b] | 74% |  |  | 71% | 0.43 nM | 105% | 37% | 35% | 106%
10 | Cc1cnc2c(c1)c1c(n2CC(C)(O)c2ccc(C)nc2)CCN2CCCC12 (single isomer, unassigned) [148c] | 6% | 16% | −1% |  |  |  |  |  | 
11 | Cc1ccc2c(c1)c1c(n2CC(C)(N)c2cccnc2)CCN(C)C1 (single isomer, unassigned) [149a, 1-(2,8-dimethyl-3,4-dihydro-1H-pyrido[4,3-b]indol-5(2H)-yl)-2-(pyridin-3-yl)propan-2-amine] |  |  | −4% | 12% |  | 16% |  |  | 
12 | Cc1ccc2c(c1)c1c(n2CC(C)(N)c2cccnc2)CCN(C)C1 (single isomer, unassigned) [149b, 1-(2,8-dimethyl-3,4-dihydro-1H-pyrido[4,3-b]indol-5(2H)-yl)-2-(pyridin-3-yl)propan-2-amine] | 16% | 32% | 19% |  |  |  |  |  | 
13 | Cc1ccc2c(c1)c1c(n2CC(c2ccncc2)N(C)C)CCN(C)C1 (single isomer, unassigned) [150a] |  | 96% |  | 16% | 1.57 nM | 88% | 16% |  | 100%
14 | CNC(Cn1c2c(c3cc(C)ccc31)CN(C)CC2)c1ccncc1 (single isomer, unassigned) [151a, 2-(1,2,3,4-tetrahydro-2,8-dimethylpyrido[4,3-b]indol-5-yl)-N-methyl-1-(pyridin-4-yl)ethanamine] |  | 93% |  | 11% |  |  | 15% |  | 
15 | CNC(Cn1c2c(c3cc(C)ccc31)CN(C)CC2)c1ccncc1 (single isomer, unassigned) [151b, 2-(1,2,3,4-tetrahydro-2,8-dimethylpyrido[4,3-b]indol-5-yl)-N-methyl-1-(pyridin-4-yl)ethanamine] | 9% | 37% | 8% |  |  |  |  |  | 
